From publication PMC6086658, “Unified mechanisms for self-RNA recognition by RIG-I Singleton-Merten syndrome variants” (eLife, 2018)
Where a chain is given by its changes, count along the chain named. {Cy3} = Cy3 fluorescent label

Experiments:
RIG-I [1] = target: T1, RIG-I (Homo sapiens, UniProt O95786); test: Fluorescence anisotropy RNA binding; conditions: 10 nM labeled RNA, one-site binding fit, n = 4
T1 construct: Recombinant full-length human RIG-I or RIG-I single amino acid mutants (1–925, N-terminal His-tag); made in house; host or cells: High Five (Trichoplusia ni) insect cells, baculovirus, pFBDM vector
T1 sequence (O95786 1-925): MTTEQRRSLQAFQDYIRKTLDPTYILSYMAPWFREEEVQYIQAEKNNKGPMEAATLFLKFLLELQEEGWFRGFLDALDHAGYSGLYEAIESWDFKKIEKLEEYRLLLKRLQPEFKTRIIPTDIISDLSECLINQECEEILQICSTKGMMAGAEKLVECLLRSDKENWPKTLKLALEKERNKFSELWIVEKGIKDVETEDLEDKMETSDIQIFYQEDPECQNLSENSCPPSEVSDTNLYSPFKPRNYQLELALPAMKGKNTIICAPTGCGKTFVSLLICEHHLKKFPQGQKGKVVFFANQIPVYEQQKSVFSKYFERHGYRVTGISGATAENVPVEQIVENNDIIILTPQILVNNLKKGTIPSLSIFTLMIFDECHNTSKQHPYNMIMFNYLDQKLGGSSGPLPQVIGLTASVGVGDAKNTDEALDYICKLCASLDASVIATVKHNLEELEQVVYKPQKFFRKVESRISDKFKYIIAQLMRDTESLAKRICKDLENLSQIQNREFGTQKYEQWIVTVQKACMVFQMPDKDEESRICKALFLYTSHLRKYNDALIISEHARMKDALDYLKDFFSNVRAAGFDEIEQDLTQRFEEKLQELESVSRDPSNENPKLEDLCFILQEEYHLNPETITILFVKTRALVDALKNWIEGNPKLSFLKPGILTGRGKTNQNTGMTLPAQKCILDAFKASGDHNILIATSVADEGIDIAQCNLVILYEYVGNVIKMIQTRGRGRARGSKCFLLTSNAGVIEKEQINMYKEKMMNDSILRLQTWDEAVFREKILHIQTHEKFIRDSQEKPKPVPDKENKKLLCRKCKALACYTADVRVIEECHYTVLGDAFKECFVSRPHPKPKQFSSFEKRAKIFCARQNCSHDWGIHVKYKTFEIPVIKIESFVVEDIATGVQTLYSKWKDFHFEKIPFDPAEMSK
Experimental: (§1) Affinities of full-length RIG-I or RIG-I C268F (1–925, N-terminal His-tag) to a Cy3-labeled hpRNA (5'-Cy3-[…]-3', purchased from Biomers, Ulm, Germany) were determined using fluorescence anisotropy. All samples were prepared in 96-well black chimney microplates (Greiner Bio-One, Kremsmünster, Austria). 10 nM RNA was pre-incubated with different protein concentrations (2.4 nM – 5 µM) for 15 min at room temperature in assay buffer (25 mM HEPES, 50 mM KCl, 5 mM MgCl2, 1 mM DTT, pH 7). Fluorescence anisotropy was measured after the addition of 5 mM ATP using a TECAN M1000 microplate reader (Tecan, Männedorf, Switzerland) at λex/em = 530/570 nm and gain = 130 during a time course of 25 min in 1 min intervals. Assays were performed four times in independent experiments using the same protein purification batch. For determination of affinities, anisotropy values between 15 and 20 min measuring time were averaged and fit to the following single-site binding model using R ([R Development Core Team, 2013]):(1) y=Bmax[P]/P+KD where y is the observed anisotropy, [P] is the protein concentration, Bmax is the maximal anisotropy and KD is the dissociation constant. Fitting was performed globally on all available datasets. Representative values in figures are mean values ± SD.

RIG-I C268F [2] = target: T2, RIG-I C268F (Homo sapiens, UniProt O95786, C268F); test: Fluorescence anisotropy RNA binding; conditions: 10 nM labeled RNA, one-site binding fit, n = 4
T2 construct: made in house; host or cells: High Five (Trichoplusia ni) insect cells, baculovirus, pFBDM vector
T2 sequence (O95786 1-925 C268F): T1 sequence (O95786 1-925) with C268F
Experimental: as §1

RIG-I C268F [3] = target: T2, RIG-I C268F; test: MANT-nucleotide binding, tryptophan fluorescence FRET
Experimental: (§2) Binding of MANT-ATP and MANT-ATPγS to different full-length RIG-I mutants (1–925, N-terminal His-tag) was determined via Förster resonance energy transfer from RIG-I to MANT-ATP (Jena Bioscience, Jena, Germany). All samples were prepared in 96-well black chimney microplates. 2.2 µM protein and equimolar concentrations of a 14mer dsRNA (5'-CGACGCUAGCGUCG-3', see 'Protein crystalization') were pre-incubated with different MANT-ATP concentrations (0.2 µM – 200 µM) for 15 min at room temperature in assay buffer (25 mM HEPES, 50 mM NaCl, 5 mM MgCl2, 1 mM DTT, pH 7). Fluorescence of MANT-ATP was measured in a TECAN M1000 microplate reader at λex/em = 290/448 nm, gain = 170 using an average of five reads per well. Assays were performed four times in independent experiments using the same protein purification batch. For determination of affinities fluorescence values were fitted to Equation (1) using R, where y is the fluorescence, [P] is the protein concentration, Bmax is the maximal fluorescence and KD is the dissociation constant. Fitting was performed globally on all available datasets. Representative values in figures are mean values ± SD.

RIG-I [4] = target: T1, RIG-I; test: as above; conditions: n = 4
Experimental: as §2, with “All samples were prepared in 96-well black chimney microplates. 2.2 µM protein and equimolar concentrations of a 14mer dsRNA (5'-CGACGCUAGCGUCG-3', see 'Protein crystalization') were pre-incubated with different MANT-ATP concentrations (0.2 µM – 200 µM) for 15 min at room temperature in assay buffer (25 mM HEPES, 50 mM NaCl, 5 mM MgCl2, 1 mM DTT, pH 7).” left out

RIG-I wild type = target: T3, RIG-I wild type (human, UniProt O95786 1-925); test: fluorescence anisotropy; no ATP, 5 mM Mg2+; Fluorescence anisotropy: 25 mM HEPES pH 7, 50 mM KCl, 5 mM MgCl2, 1 mM DTT, +/- 5 mM ATP, 10 nM RNA, room temperature; conditions: protein: recombinant; tags: N-terminal His-tag; label: 5'-Cy3; hairpin with non-base-paired ends
T3 sequence: T1 sequence (O95786 1-925)

RIG-I C268F [5] = target: T4, RIG-I C268F (human, UniProt O95786 1-925, C268F); test: as above; conditions: protein: recombinant; tags: N-terminal His-tag; label: 5'-Cy3; hairpin with non-base-paired ends
T4 sequence: T1 sequence (O95786 1-925) with C268F

RIG-I Δ2CARD C268F = target: T5, RIG-I Δ2CARD C268F (human, UniProt O95786 232-925, C268F); test: crystal structure; co-crystallized with ADP-BeFx or ATP; no nucleotide bound in structure; Fluorescence anisotropy: 25 mM HEPES pH 7, 50 mM KCl, 5 mM MgCl2, 1 mM DTT, +/- 5 mM ATP, 10 nM RNA, room temperature; conditions: protein: recombinant; tags: N-terminal His-tag (insect cells) or His-SUMO3 cleaved off (E. coli); blunt, palindromic self-duplex
T5 sequence: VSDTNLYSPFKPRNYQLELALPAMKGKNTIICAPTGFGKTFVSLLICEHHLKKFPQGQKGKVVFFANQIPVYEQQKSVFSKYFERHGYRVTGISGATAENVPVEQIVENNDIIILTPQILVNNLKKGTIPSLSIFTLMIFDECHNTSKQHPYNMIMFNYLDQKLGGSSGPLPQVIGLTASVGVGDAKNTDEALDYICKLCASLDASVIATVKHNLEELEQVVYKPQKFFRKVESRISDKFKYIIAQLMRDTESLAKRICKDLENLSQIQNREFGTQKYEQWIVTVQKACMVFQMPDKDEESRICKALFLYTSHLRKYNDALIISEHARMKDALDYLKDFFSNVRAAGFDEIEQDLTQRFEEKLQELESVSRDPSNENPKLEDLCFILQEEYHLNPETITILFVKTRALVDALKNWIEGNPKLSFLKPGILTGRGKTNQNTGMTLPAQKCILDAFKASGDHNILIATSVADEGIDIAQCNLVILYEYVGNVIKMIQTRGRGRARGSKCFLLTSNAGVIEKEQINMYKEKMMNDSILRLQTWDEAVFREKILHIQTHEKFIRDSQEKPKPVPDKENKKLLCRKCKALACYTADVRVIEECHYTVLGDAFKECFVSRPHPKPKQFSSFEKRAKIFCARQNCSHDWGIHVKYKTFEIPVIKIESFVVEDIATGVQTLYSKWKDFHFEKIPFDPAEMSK

“5'-Cy3-CCACCCGCCCCCCUAGUGAGGGGGGCGGGCC-3' (RNA, 5' {Cy3}, backbone not given here; RNA hairpin ligand with non-base-paired ends, used in fluorescence anisotropy binding assays) [fluorescently labeled 14mer dsRNA, Cy3-labeled hairpin RNA containing non-base-paired RNA ends, purchased from Biomers]” was tested, and the Kd (RIG-I [1]; absence of ATP, read-out: KD, RIG-I) was 0.54 µM, the Kd (RIG-I [1]; presence of 5 mM ATP, read-out: KD, RIG-I + ATP) was 1.04 µM and the Kd (RIG-I C268F [2]; absence of ATP, read-out: KD, RIG-I C268F) was 0.098 µM. The Kd (RIG-I C268F [2]; presence of 5 mM ATP, read-out: KD, RIG-I C268F + ATP) was 0.058 µM.

MANT-ATPγS gave a Kd (RIG-I C268F [3]; absence of RNA, n = 4, read-out: Affinity (KD) to RIG-I C268F) of 116 ± 13 µM, a Kd (RIG-I C268F [3]; presence of equimolar 14mer dsRNA, n.f. = no fit possible as no saturation was reached, read-out: Affinity (KD) to RIG-I C268F + RNA) of 147 ± 55 µM and a Kd (RIG-I [4]; absence of RNA, full-length His-RIG-I, read-out: Affinity (KD) to RIG-I) of 58 ± 7 µM. It also gave a Kd (RIG-I [4]; presence of equimolar 14mer dsRNA, read-out: Affinity (KD) to RIG-I + RNA) of 11 ± 1 µM.

CCACCCGCCCCCCUAGUGAGGGGGGCGGGCC (structured_RNA) [Cy3-hpRNA (14mer stem hairpin)]: binds (RIG-I wild type); binds (RIG-I C268F [5]).

B1: 14mer dsRNA (dsRNA)
RNA 1: CGACGCUAGCGUCG
RNA 2: CGACGCUAGCGUCG
B1: binds (RIG-I Δ2CARD C268F).
